Results published in patent publication US20230382904A1, “SUBSTITUTED 4-([1,2,4]TRIAZOLO[1,5-a]PYRIDIN-6-YL)THIOPHENE-2-CARBOXAMIDE DERIVATIVES AND USE THEREOF” (The Johns Hopkins University, priority 2020, published 2023).

Tests used:
DLK = DLK (Homo sapiens (Human), UniProt Q12852); test: DLK biochemical assay (TR-FRET, MKK7 phosphorylation)
In short: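 TR-FRET ratio (665/Eu) reports MKK7 T275/S277 phosphorylation, lowered by DLK inhibition. Reaction: 60 μM ATP, 15 nM MKK7, 10 nM DLK catalytic domain, 90 min room temperature; detection incubation 16 h, 37° C. (1536-well) or 4° C. (384-well). Final concentrations.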

LZK = LZK (Homo sapiens (Human), UniProt O43283); test: LZK biochemical assay (TR-FRET, MKK7 phosphorylation)
In short: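 Readout is the HTRF ratio (XL665/Eu) from an EDTA-containing detection mix of 0.4 nM Eu-anti-phospho-MKK7 (T275/S277) and 20 nM XL665-anti-His, incubated 16 h at 32° C. This followed a 90 min RT reaction of 10 nM LZK catalytic domain, 15 nM MKK7 and 15 μM ATP at pH 7.5.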

LZK, sequence (O43283 168-409): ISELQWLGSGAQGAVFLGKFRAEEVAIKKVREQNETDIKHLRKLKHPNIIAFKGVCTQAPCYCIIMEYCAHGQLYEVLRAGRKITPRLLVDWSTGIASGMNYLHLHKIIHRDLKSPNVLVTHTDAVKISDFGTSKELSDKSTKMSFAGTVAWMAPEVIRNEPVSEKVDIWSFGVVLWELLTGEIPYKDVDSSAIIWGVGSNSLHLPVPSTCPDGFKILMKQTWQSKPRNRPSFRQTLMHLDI
DLK, sequence (Q12852 1-520): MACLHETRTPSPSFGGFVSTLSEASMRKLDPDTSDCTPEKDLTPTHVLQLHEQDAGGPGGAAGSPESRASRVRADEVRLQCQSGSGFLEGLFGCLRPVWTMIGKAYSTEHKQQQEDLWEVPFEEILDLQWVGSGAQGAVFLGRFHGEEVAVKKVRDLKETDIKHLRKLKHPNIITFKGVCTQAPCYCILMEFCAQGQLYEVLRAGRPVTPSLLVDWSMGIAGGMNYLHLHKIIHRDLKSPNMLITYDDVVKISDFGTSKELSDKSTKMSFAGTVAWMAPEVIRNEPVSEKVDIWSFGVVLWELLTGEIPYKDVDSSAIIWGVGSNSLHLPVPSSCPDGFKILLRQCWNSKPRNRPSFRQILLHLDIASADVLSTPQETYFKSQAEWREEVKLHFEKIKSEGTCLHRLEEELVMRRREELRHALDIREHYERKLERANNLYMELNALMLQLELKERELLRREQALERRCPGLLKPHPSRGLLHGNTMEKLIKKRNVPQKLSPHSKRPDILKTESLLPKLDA

Nc1nc2ccc(-c3csc(C(=O)NC4CCCC(C(F)(F)F)C4)c3)cn2n1 (centres unmarked) [Compound 176]
IC50 (DLK): 1000 nM | IC50 (LZK): > 30000 nM

CCO[C@H]1CC[C@H](NC(=O)c2cc(-c3ccc4nc(N)nn4c3)cs2)CC1 [Compound 177]
IC50 (DLK): 1600 nM | IC50 (LZK): > 30000 nM

CCN1CCCC(NC(=O)c2cc(-c3ccc4nc(N)nn4c3)cs2)C1 (centres unmarked) [Compound 180]
IC50 (DLK): 2000 nM | IC50 (LZK): > 30000 nM

CN1CCCC(NC(=O)c2cc(-c3ccc4nc(N)nn4c3)cs2)C1 (centres unmarked) [Compound 181]
IC50 (DLK): 3500 nM | IC50 (LZK): > 30000 nM

COc1cccc(CNC(=O)c2cc(-c3ccc4nc(N)nn4c3)cs2)c1 [Compound 182]
IC50 (DLK): 133 nM | IC50 (LZK): 25000 nM

Nc1nc2ccc(-c3csc(C(=O)NC4CCCOC4)c3)cn2n1 (centres unmarked) [Compound 184]
IC50 (DLK): 1950 nM | IC50 (LZK): 24000 nM

Nc1nc2ccc(-c3csc(C(=O)NC4CCOCC4)c3)cn2n1 [Compound 185]
IC50 (DLK): 1700 nM | IC50 (LZK): 26000 nM

Nc1nc2ccc(-c3csc(C(=O)NCC4CCCCC4)c3)cn2n1 [Compound 187]
IC50 (DLK): 710 nM | IC50 (LZK): > 30000 nM

Nc1nc2ccc(-c3csc(C(=O)NCC4CCOCC4)c3)cn2n1 [Compound 188]
IC50 (DLK): 2000 nM | IC50 (LZK): > 30000 nM

Nc1nc2ccc(-c3csc(C(=O)NCC4CCCC4)c3)cn2n1 [Compound 190]
IC50 (DLK): 530 nM | IC50 (LZK): > 30000 nM

CCOc1cccc(CNC(=O)c2cc(-c3ccc4nc(N)nn4c3)cs2)c1 [Compound 191]
IC50 (DLK): 320 nM | IC50 (LZK): > 30000 nM

Nc1nc2ccc(-c3csc(C(=O)NCc4cccc(OC(F)(F)F)c4)c3)cn2n1 [Compound 192]
IC50 (DLK): 460 nM | IC50 (LZK): > 30000 nM

Nc1nc2ccc(-c3csc(C(=O)NCc4cccc(Cl)c4)c3)cn2n1 [Compound 193]
IC50 (DLK): 615 nM | IC50 (LZK): 5000 nM

Cc1cccc(CNC(=O)c2cc(-c3ccc4nc(N)nn4c3)cs2)c1 [Compound 194]
IC50 (DLK): 670 nM | IC50 (LZK): > 30000 nM

Nc1nc2ccc(-c3csc(C(=O)NCc4cccc(OC(F)F)c4)c3)cn2n1 [Compound 195]
IC50 (DLK): 480 nM | IC50 (LZK): 8800 nM

CC(C)Oc1cccc(CNC(=O)c2cc(-c3ccc4nc(N)nn4c3)cs2)c1 [Compound 196]
IC50 (DLK): 350 nM | IC50 (LZK): 9490 nM

Nc1nc2ccc(-c3csc(C(=O)NCC4CCCOC4)c3)cn2n1 (centres unmarked) [Compound 197]
IC50 (DLK): 1600 nM | IC50 (LZK): > 30000 nM

CN1C2CCC1CC(NC(=O)c1cc(-c3ccc4nc(N)nn4c3)cs1)C2 (centres unmarked) [Compound 201]
IC50 (DLK): 2800 nM | IC50 (LZK): > 30000 nM

COc1ccc(CNC(=O)c2cc(-c3ccc4nc(N)nn4c3)cs2)cc1OC [Compound 202]
IC50 (DLK): 820 nM | IC50 (LZK): > 30000 nM

COc1ccc(CNC(=O)c2cc(-c3ccc4nc(N)nn4c3)cs2)cc1 [Compound 203]
IC50 (DLK): 1010 nM | IC50 (LZK): 13000 nM

Nc1nc2ccc(-c3csc(C(=O)NCc4cccc(OCC(F)(F)F)c4)c3)cn2n1 [Compound 204]
IC50 (DLK): 300 nM | IC50 (LZK): > 30000 nM

Nc1nc2ccc(-c3csc(C(=O)NCc4cccc(OC5CC5)c4)c3)cn2n1 [Compound 205]
IC50 (DLK): 230 nM | IC50 (LZK): 12000 nM

Nc1nc2ccc(-c3csc(C(=O)NCc4cccnc4)c3)cn2n1 [Compound 206]
IC50 (DLK): 550 nM | IC50 (LZK): 28000 nM

Nc1nc2ccc(-c3csc(C(=O)NCc4cccc(OCCN5CCOCC5)c4)c3)cn2n1 [Compound 207]
IC50 (DLK): 470 nM | IC50 (LZK): 27000 nM

Nc1nc2ccc(-c3csc(C(=O)NCC4COCCO4)c3)cn2n1 (centres unmarked) [Compound 209]
IC50 (DLK): 2500 nM | IC50 (LZK): > 30000 nM
